Reference: ChEMBL document CHEMBL5120766, “Recent insight into the biological activities and SAR of quinolone derivatives as multifunctional scaffold” (Bioorg Med Chem, 2022)
Values after ≈ are worked out from the molar mass of the structure shown.

Assays:
A549 = assay: Antiproliferative activity against human A549 cells assessed as cell growth inhibition measured after 72 hrs by MTT assay; assay type: functional, cell-based; conditions: A549, 72 h
Cytochrome P450 3A4 = Cytochrome P450 3A4 (Homo sapiens, UniProt P08684); assay: Inhibition of CYP3A4 in human liver microsomes using midazolam as substrate; assay type: ADME, Microsome
[1] = test system: Mycobacterium tuberculosis; assay: Antimycobacterial activity against Mycobacterium tuberculosis H37Rv assessed as inhibition of bacterial growth measured after 7 days by alamar blue dye based microplate analysis; assay type: functional; conditions: 168 h, time 7 day
[2] = test system: Human immunodeficiency virus 1; assay: Antiviral activity against HIV1 A17 mutant infected in human C8166 cells; assay type: functional, organism-based; conditions: Human immunodeficiency virus 1, A17, C8166
[3] = test system: Human immunodeficiency virus 1; assay: Antiviral activity against wild type HIV1 infected in human C8166 cells; assay type: functional, organism-based; conditions: Human immunodeficiency virus 1, C8166
[4] = test system: Human immunodeficiency virus 1; assay: Antiviral activity against HIV1 infected in human MT4 cells by MTT assay; assay type: functional, organism-based; conditions: Human immunodeficiency virus 1, MT4
[5] = test system: Human immunodeficiency virus 2; assay: Antiviral activity against HIV2 infected in human MT4 cells by MTT assay; assay type: functional, organism-based; conditions: Human immunodeficiency virus 2, MT4
Plasmodium falciparum [6] = assay: Antiplasmodial activity against chloroquine sensitive Plasmodium falciparum NF54 infected in human red blood cells assessed as reduction in [3H]-hypoxanthine incorporation pretreated for 48 hrs followed by [3H]-hypoxanthine addition measured after 24 hrs by scintillation counting method; assay type: functional, organism-based
Bacillus subtilis [7] = assay: Antibacterial activity against Bacillus subtilis ATCC 6633 incubated for 18 hrs by agar dilution method; assay type: functional
[8] = test system: Staphylococcus epidermidis; assay: Antibacterial activity against Staphylococcus epidermidis ATCC 12228 incubated for 18 hrs by agar dilution method; assay type: functional
Staphylococcus aureus [9] = assay: Antibacterial activity against Staphylococcus aureus ATCC 6538p incubated for 18 hrs by agar dilution method; assay type: functional
Plasmodium falciparum [10] = assay: Antiplasmodial activity against Plasmodium falciparum 3D7 assessed as cell growth inhibition; assay type: functional, organism-based
Escherichia coli [11] = assay: Antibacterial activity against Escherichia coli PTCC 1047 assessed as zone of inhibition incubated for 24 hrs by cup-plate agar diffusion method; assay type: functional
Bacillus subtilis [12] = assay: Antibacterial activity against Bacillus subtilis PTCC 1207 assessed as zone of inhibition incubated for 24 hrs by cup-plate agar diffusion method; assay type: functional
Bacteroides fragilis = assay: Antibacterial activity against Bacteroides fragilis PA-2-II incubated for 18 hrs by microbroth dilution method; assay type: functional
Clostridium perfringens = assay: Antibacterial activity against Clostridium perfringens 22 incubated for 18 hrs by microbroth dilution method; assay type: functional
Pseudomonas aeruginosa [13] = assay: Antibacterial activity against Pseudomonas aeruginosa NCDC 105 assessed as zone of inhibition at 10 ug/ml by agar well diffusion method; assay type: functional; conditions: read-out: DIZ
Pseudomonas aeruginosa [14] = assay: Antibacterial activity against Pseudomonas aeruginosa NCDC 105 assessed as zone of inhibition at 50 ug/ml by agar well diffusion method; assay type: functional; conditions: read-out: DIZ
Pseudomonas aeruginosa [15] = assay: Antibacterial activity against Pseudomonas aeruginosa NCDC 105 assessed as zone of inhibition at 100 ug/ml by agar well diffusion method; assay type: functional; conditions: read-out: DIZ
Escherichia coli [16] = assay: Antibacterial activity against Escherichia coli ATCC 8739 assessed as zone of inhibition by agar dilution method; assay type: functional
Staphylococcus aureus [17] = assay: Antibacterial activity against Staphylococcus aureus ATCC 6538 assessed as zone of inhibition by agar dilution method; assay type: functional
Escherichia coli [18] = assay: Antibacterial activity against Escherichia coli ATCC 35218 incubated for 24 hrs by serial dilution method; assay type: functional
Klebsiella pneumoniae = assay: Antibacterial activity against Klebsiella pneumoniae ATCC 35657 incubated for 24 hrs by serial dilution method; assay type: functional
Plasmodium falciparum [19] = assay: Antiplasmodial activity against Plasmodium falciparum FCR-3 assessed as cell growth inhibition; assay type: functional, organism-based
[20] = test system: Mycobacterium tuberculosis; assay: Antimycobacterial activity against Mycobacterium tuberculosis H37Rv assessed as inhibition of bacterial growth measured after 24 hrs by turbidity based analysis; assay type: functional

Cytochrome P450 3A4, sequence (P08684 whole entry): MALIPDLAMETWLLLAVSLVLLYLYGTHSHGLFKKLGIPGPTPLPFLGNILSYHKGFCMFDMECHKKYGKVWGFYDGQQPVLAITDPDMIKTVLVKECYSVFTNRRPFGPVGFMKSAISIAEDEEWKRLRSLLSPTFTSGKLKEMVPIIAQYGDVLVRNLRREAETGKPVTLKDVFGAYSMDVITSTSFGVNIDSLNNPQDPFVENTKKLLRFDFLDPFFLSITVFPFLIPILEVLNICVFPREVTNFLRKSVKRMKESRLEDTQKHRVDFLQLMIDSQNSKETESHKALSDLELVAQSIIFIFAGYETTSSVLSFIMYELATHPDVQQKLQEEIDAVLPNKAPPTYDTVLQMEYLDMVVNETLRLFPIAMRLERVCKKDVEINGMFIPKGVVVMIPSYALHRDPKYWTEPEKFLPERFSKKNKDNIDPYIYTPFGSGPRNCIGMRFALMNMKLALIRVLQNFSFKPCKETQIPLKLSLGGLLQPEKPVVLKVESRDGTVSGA

**Q.** Which IC50 (A549) does the source give for N=C(NS(=O)(=O)c1ccccc1C(F)(F)F)N1CCN(c2cc3c(cc2F)c(=O)c(C(=O)O)cn3-c2ccc(F)cc2F)CC1 here?
**A.** The IC50 was 9 nM.

**Q.** COc1c(N2CC[C@@H](C3(N)CC3)C2)ccc2c(=O)c(C(=O)O)cn([C@@H]3C[C@@H]3F)c12 was tested. Which Ki (Cytochrome P450 3A4) did it give?
**A.** Its Ki is 67900 nM.

**Q.** With COc1ccc(C(=O)N/N=C(/C)CCN2CCN(c3c(F)cc4c(=O)c(C(=O)O)cn(C5CC5)c4c3OC)CC2)cc1 as the compound, how does the MIC [1] read?
**A.** Its MIC is 0.5 µM (≈ 0.29 µg/mL).

**Q.** How did the EC50 [2] turn out when CC(C)[C@@H](CO)n1cc(C(=O)O)c(=O)c2c(F)c(Cc3cccc(Cl)c3F)ccc21 was run?
**A.** The EC50 was 82 nM.

**Q.** And the EC50 [3]?
**A.** The EC50 was 32 nM.

**Q.** Which EC50 [4] does the source give for Cn1cc(C(=O)O)c(=O)c2ccc(N3CCN(c4nc5ccccc5s4)CC3)nc21 here?
**A.** The EC50 was 60 nM.

**Q.** What about the EC50 [5] of the same compound?
**A.** Its EC50 is 40 nM.

**Q.** With Cn1c(-c2ccc(CCCCCCCCCCN3CCCCC3)cc2)cc(=O)c2ccccc21 as the compound, how does the IC50 (Plasmodium falciparum [6]) read?
**A.** Its IC50 is 820 nM.

**Q.** For O=C(O)c1cn(-c2ccc(F)cc2)c2cc(N3CCN(C/C(=N\O)c4ccccc4)CC3)c(F)cc2c1=O, which MIC (Bacillus subtilis [7]) is on record?
**A.** Its MIC is under 0.125 µg/mL.

**Q.** What about the MIC [8] of the same compound?
**A.** Its MIC is under 0.125 µg/mL.

**Q.** And the MIC (Staphylococcus aureus [9])?
**A.** Its MIC is under 0.125 µg/mL.

**Q.** With C[C@H]1[C@@H](OC(=O)c2cn(C3CC3)c3cc(N4CCNCC4)c(F)cc3c2=O)O[C@@H]2O[C@@]3(C)CC[C@H]4[C@H](C)CC[C@@H]1[C@@]24OO3 as the compound, how does the IC50 (Plasmodium falciparum [10]) read?
**A.** Its IC50 is 9.97 nM.

**Q.** Which “diameter of the inhibition zone (DIZ)” value (Escherichia coli [11]) does the source give for CCn1cc(C(=O)O)c(=O)c2cc(F)c(N3CCN(C/C(=N\OC)c4cc5cccc(OC)c5oc4=O)CC3)nc21 here?
**A.** Its value is 35 mm.

**Q.** And the “diameter of the inhibition zone (DIZ)” value (Bacillus subtilis [12])?
**A.** Its value is 39 mm.

**Q.** Which results are given for Cc1c(N2C[C@]3(N)CCC[C@]3(F)C2)c(F)cc2c(=O)c(C(=O)O)cn([C@@H]3C[C@@H]3F)c12.Cl.O.O?
**A.** MIC (Bacteroides fragilis): ≤ 0.05 µg/mL; MIC (Clostridium perfringens): ≤ 0.05 µg/mL

**Q.** O=C(O)c1cn(C2CC2)c2cc(N3CCN(CNc4nc5ccc([N+](=O)[O-])cc5s4)CC3)c(F)cc2c1=O was tested. Which zone of inhibition at 10 µg/mL (Pseudomonas aeruginosa [13]) did it give?
**A.** Its zone of inhibition at 10 µg/mL is 3.5 mm.

**Q.** What about the zone of inhibition at 50 µg/mL (Pseudomonas aeruginosa [14]) of the same compound?
**A.** The zone of inhibition at 50 µg/mL was 5.5 mm.

**Q.** And the zone of inhibition at 100 µg/mL (Pseudomonas aeruginosa [15])?
**A.** The zone of inhibition at 100 µg/mL was 6.3 mm.

**Q.** CCn1cc(C(=O)O)c(=O)c2cc(F)c(N3CCN(CNc4nc5ccc(F)cc5s4)CC3)cc21 was tested. Which zone of inhibition at 10 µg/mL (Pseudomonas aeruginosa [13]) did it give?
**A.** Its zone of inhibition at 10 µg/mL is 3.3 mm.

**Q.** And the zone of inhibition at 50 µg/mL (Pseudomonas aeruginosa [14])?
**A.** Its zone of inhibition at 50 µg/mL is 3.8 mm.

**Q.** What about the zone of inhibition at 100 µg/mL (Pseudomonas aeruginosa [15]) of the same compound?
**A.** Its zone of inhibition at 100 µg/mL is 4.8 mm.

**Q.** Which results are given for O=C([O-])c1cn(CCn2cc(C(=O)[O-])c(=O)c3cc(F)c(N4CC5CCCNC5C4)c(F)c32)c2c(F)c(N3CC4CCCNC4C3)c(F)cc2c1=O.[Na+].[Na+] (stereo unspecified)?
**A.** diameter of the inhibition zone (DIZ) (Escherichia coli [16]): 22 mm; diameter of the inhibition zone (DIZ) (Staphylococcus aureus [17]): 15 mm

**Q.** Cn1c(-c2ccc(CCCCCCBr)cc2)cc(=O)c2ccccc21 was tested. Which IC50 (Plasmodium falciparum [6]) did it give?
**A.** Its IC50 is 90 nM.

**Q.** Which MIC (Escherichia coli [18]) does the source give for O=C(NO)c1cn(C2CC2)c2cc(-n3cc(CN4CCOCC4)nn3)c(F)cc2c1=O here?
**A.** The MIC was 4 µg/mL (≈ 9.34 µM).

**Q.** And the MIC (Klebsiella pneumoniae)?
**A.** Its MIC is 4 µg/mL (≈ 9.34 µM).

**Q.** How did the IC50 (Plasmodium falciparum [19]) turn out when Cn1cc(C(=O)N/N=C\c2ccccn2)c(=O)c2cc(F)ccc21 was run?
**A.** The IC50 was 3300 nM.

**Q.** What does the source list for CCn1cc(C(=O)O)c(=O)c2cc(F)c(N3CCN(C/C(=N\OC)c4cc5cccc(OC)c5oc4=O)CC3)cc21?
**A.** diameter of the inhibition zone (DIZ) (Escherichia coli [11]): 32 mm; diameter of the inhibition zone (DIZ) (Bacillus subtilis [12]): 36 mm

**Q.** CCn1cc(C(=O)O)c(=O)c2cc(F)c(N3CCN(CC(=O)Nc4nnc(-c5ccc(Cl)cc5Cl)s4)CC3)cc21 was tested. Which MIC [20] did it give?
**A.** The MIC was 8 µg/mL (≈ 13.2 µM).
